# Data published in US20160039871A1, “NOVEL FORMS OF TELAPREVIR” (SANDOZ AG, priority 2012, published 2016).
# Experiment: moisture sorption (Dynamic Vapor Sorption), water content versus relative humidity
# Type: physicochemical
# Method: The moisture sorption isotherms were recorded with a SPS-11 moisture sorption analyzer (MD Messtechnik, Ulm, D). […] The equilibrium condition for each step was set to a mass constancy of ±0.005% over 60 min. The temperature was 25±0.1° C.
smiles,measurement,setting,value
"CCC[C@H](NC(=O)[C@@H]1[C@H]2CCC[C@H]2CN1C(=O)[C@@H](NC(=O)[C@@H](NC(=O)c1cnccn1)C1CCCCC1)C(C)(C)C)C(=O)C(=O)NC1CC1 [Form C, (1S,3aR,6aS)-2-[(2S)-2-[[(2S)-2-Cyclohexyl-2-(pyrazine-2-carbonylamino)acetyl]amino]-3,3-dimethylbutanoyl]-N-[(3S)-1-(cyclopropylamino)-1,2-dioxohexan-3-yl]-3,3a,4,5,6,6a-hexahydro-1H-cyclopenta[c]pyrrole-1-carboxamide]",water content,relative humidity of about 40%,about 0.5 moles of water
same,water content,relative humidity of about 70%-80%,about 0.9 moles of water
